Laboratory results reported in patent US20080247991A1, “Solution Additives For the Attenuation of Protein Aggregation” (priority 2004, published 2008).

Tests used:
carbonic anhydrase II [1] = target: T1, carbonic anhydrase II (Bos taurus, UniProt P00921); experiment: Carbonic anhydrase refolding yield by esterase activity (pNPA); settings: for α/α0 / α (refolding selectivity parameter, kr/kagg): 0.5 M additive, base buffer 0.5 M GuHCl; for α/α0: relative to 0.5M NaCl; for α (refolding selectivity parameter, kr/kagg): fit to second-order aggregation model; for order of yield of active protein as a function of buffer additive: equimolar (0.5M) additives
Description: Esterase activity assays were performed as a function of initial unfolded protein concentration and buffer composition to determine how equimolar concentrations of NaCl, ArgHCl, and GuHCl each affected refolding yield (FIG. 16).
High concentrations of carbonic anhydrase (>300 μM) were denatured in 6M GuHCl and equilibrated overnight. Refolding was initiated by dilution to 0.5M GuHCl with 50 mM Tris-HCl buffer, pH 7.5. This final GuHCl concentration was selected because it yields a mixture of active, refolded protein and aggregates. The distribution of this mixture was analyzed via esterase activity, size exclusion HPLC, and dynamic light scattering as described above.
Carbonic Anhydrase Esterase Activity—Esterase activity of carbonic anhydrase was assessed using para-nitrophenylacetate (pNPA) as the substrate as described previously. […] Briefly, 10 μl samples of carbonic anhydrase solution were added to 500 μl of Tris-HCl, pH 7.5 and 50 μl of 50 mM pNPA in acetonitrile. Kinetics of hydrolysis of pNPA was observed by the increase in absorbance at 400 nm due to the appearance of the paranitrophenolate ion (pNP^−). In all cases, the observed hydrolysis rate in absorbance units per second (AU/s) under these conditions was constant (pseudo-zero order). Hydrolysis rates were corrected for the hydrolysis of pNPA by the buffer for each type of buffer used. […] The active protein concentration data was reproducible to within 5-8% in replicated experiments.

carbonic anhydrase II [2] = target: T1, carbonic anhydrase II; experiment: Size exclusion HPLC of multimers formed during refolding of carbonic anhydrase; set-up: purchased Sigma-Aldrich C2522; species or system bovine; settings: for yield of monomeric protein: 0.5M added, versus 0.5M NaCl; for A2, percentage of total carbonic anhydrase / A3-5, percentage of total carbonic anhydrase / A6-15, percentage of total carbonic anhydrase / M (monomer), percentage of total carbonic anhydrase / Large multimers, percentage of total carbonic anhydrase: [U]0 = 20 μM, 0.5 M additive; for Large multimers, percentage of total carbonic anhydrase: inferred by difference
Description: Size exclusion HPLC experiments were performed to analyze the distribution of multimers formed during refolding. CA was refolded with three different additives, 0.5M NaCl, 0.5M GuHCl, and 0.5M ArgHCl, relative to a base refolding buffers of 0.5M GuHCl, as done in the esterase activity assays above. […] Other than this protein concentration difference, these experiments allow direct comparison of how an additional 0.5M of the three different cations affect refolding.
The samples were not filtered prior to introduction into the HPLC column.
Size Exclusion HPLC—Size exclusion HPLC (SE-HPLC) experiments were performed on a Beckman System Gold HPLC instrument equipped with a Tosohaas G3000SWXL size exclusion column and a UV detector. 30 μl samples were introduced to the column by a constant flow of 1 ml/min mobile phase. Each sample ran for 15 minutes, with carbonic anhydrase eluting between 6 and 10 minutes, depending on its molecular weight and buffer. […] A mixture of lysozyme, carbonic anhydrase, and bovine serum albumin (monomer and dimer) was used as a standard to calibrate molecular weight to retention time. Using this calibration curve and the breakthrough time of the column, the largest multimer that could pass through the column was a 15-mer. When significant mass was missing from a chromatogram, large multimers were quantitated by difference. The presence of large multimers was confirmed via turbidity or dynamic light scattering for each buffer. The instrument was cleaned with 30 μl injections of 4M GuHCl, a denaturing concentration found to dissociate and elute precipitates and large soluble carbonic anhydrase multimers.

[3] = target: T2, insulin binding to immobilized monoclonal anti-insulin (Homo sapiens, UniProt P01308); experiment: Surface plasmon resonance (Biacore 3000): globular protein association/dissociation kinetics in buffer with additive; settings: for ka / kd: pH 7.4, estimated error 15%; for ka/ka0 / kd/kd0: 0.5 M additive, relative to HBS-EP + 0.5 M NaCl; for effect on association rate of insulin and anti-insulin / effect on dissociation rate of insulin and anti-insulin: 0.5M, relative to 0.5M NaCl control
T2 construct: purchased Sigma-Aldrich (insulin); Fitzgerald Industries (antibody) I8530; 10-130 clone M322214
Description: Surface plasmon resonance experiments were conducted to measure the effect of added ArgHCl and GuHCl on the kinetics of globular protein association and dissociation versus an equimolar salt control (NaCl). The data set shown in the figure is a composition of 8 different concentration runs plus replicates, for a total of 16 runs. At t=140 sec, the flow cell with immobilized anti-insulin was exposed to a constant concentration of insulin in the range of 2 to 188 nM for 3 minutes. During this 3 minutes, the antibody and antigen were free to associate and dissociate. The net reaction is the binding of free antigen in solution, resulting in an increase in detector response proportional to the mass of antigen bound. At t=320 sec, the insulin concentration in the flow cell inlet is returned to zero, and the bound antigen then dissociates from the surface. All 16 runs were simultaneously fit to a binding model by minimizing the squared residuals to yield the association and dissociation rate constants, ka and kd. This process was repeated to yield association, dissociation, and equilibrium constant data for the model systems in various buffers as shown in Table 4.
Globular Protein Association Kinetics—Protein association and dissociation rate constants, ka and kd, were measured for globular proteins via surface plasmon resonance on a Biacore 3000 instrument. Monoclonal anti-insulin was immobilized on a Biacore CM5 sensor chip via amine coupling. The amount of immobilized antibody was selected to give a detector response in the range of 50-100 RU when antigen was present. A reference surface was created by activating and deactivating the surface without coupling an antibody to it.
Different concentrations of insulin in the nanomolar range ([…]) were prepared by dilution and injected serially into the antibody-containing and reference flow cells. […] Pocker, Y. & Biswas, Subhasis, B. (1981) Biochemistry 20, 4354-4361. The dissociation rate was sufficiently fast in buffer that a regeneration buffer was not required. Kinetic constants were extracted by simultaneous fitting of ka and kd to each set of sensorgrams using a 1:1 kinetic model in the BIAevaluation 3.0 software package.

carbonic anhydrase II [4] = target: T1, carbonic anhydrase II; set-up: purchased Sigma-Aldrich C2522; settings: 1.0M GuHCl, carbonic anhydrase less than 30 μM; previous studies; cited from earlier work

T2 sequence (P01308 25-54 limits assumed): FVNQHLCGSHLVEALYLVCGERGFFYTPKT
T2 sequence (P01308 90-110 limits assumed): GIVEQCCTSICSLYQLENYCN
T1 sequence (P00921 whole entry): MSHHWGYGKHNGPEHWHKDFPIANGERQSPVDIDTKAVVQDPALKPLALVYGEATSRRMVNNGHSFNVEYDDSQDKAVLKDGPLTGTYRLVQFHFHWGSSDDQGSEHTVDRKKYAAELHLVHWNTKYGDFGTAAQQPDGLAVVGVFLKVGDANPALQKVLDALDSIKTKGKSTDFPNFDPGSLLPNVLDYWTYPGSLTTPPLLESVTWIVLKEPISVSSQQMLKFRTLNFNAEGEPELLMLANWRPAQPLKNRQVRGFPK

| Structure (SMILES) | α/α0 (carbonic anhydrase II [1]) | α (refolding selectivity parameter, kr/kagg) (carbonic anhydrase II [1]) [µM] | order of yield of active protein as a function of buffer additive (carbonic anhydrase II [1]) | yield of monomeric protein (carbonic anhydrase II [2]) | A2, percentage of total carbonic anhydrase (carbonic anhydrase II [2]; time 2 min) [%] | A3-5, percentage of total carbonic anhydrase (carbonic anhydrase II [2]; time 2 min) [%] | A6-15, percentage of total carbonic anhydrase (carbonic anhydrase II [2]; time 2 min) [%] | M (monomer), percentage of total carbonic anhydrase (carbonic anhydrase II [2]; time 2 min) [%] | Large multimers, percentage of total carbonic anhydrase (carbonic anhydrase II [2]; time 2 min) [%] | A2, percentage of total carbonic anhydrase (carbonic anhydrase II [2]; time 20 min) [%] | A3-5, percentage of total carbonic anhydrase (carbonic anhydrase II [2]; time 20 min) [%] | A6-15, percentage of total carbonic anhydrase (carbonic anhydrase II [2]; time 20 min) [%] | M (monomer), percentage of total carbonic anhydrase (carbonic anhydrase II [2]; time 20 min) [%] | Large multimers, percentage of total carbonic anhydrase (carbonic anhydrase II [2]; time 20 min) [%] | A2, percentage of total carbonic anhydrase (carbonic anhydrase II [2]; time 38 min) [%] | A3-5, percentage of total carbonic anhydrase (carbonic anhydrase II [2]; time 38 min) [%] | A6-15, percentage of total carbonic anhydrase (carbonic anhydrase II [2]; time 38 min) [%] | M (monomer), percentage of total carbonic anhydrase (carbonic anhydrase II [2]; time 38 min) [%] | Large multimers, percentage of total carbonic anhydrase (carbonic anhydrase II [2]; time 38 min) [%] | A2, percentage of total carbonic anhydrase (carbonic anhydrase II [2]; time 1500 min) [%] | further results |
| --- | --- | --- | --- | --- | --- | --- | --- | --- | --- | --- | --- | --- | --- | --- | --- | --- | --- | --- | --- | --- | --- |
| Cl.N=C(N)NCCC[C@H](N)C(=O)O [ArgHCl, arginine hydrochloride] | 5.0 | 47 | NaCl<<ArgHCl<GuHCl | significantly increased | 30 | 25 | 21 | 22 | 2 | 7 | 14 | 26 | 54 | −1 | 4 | 11 | 24 | 62 | −1 | 0 | average aggregate molecular weight (ignoring the monomer) (carbonic anhydrase II [2]; 0.5M additive, compared among the three buffers): lowest; A3-5, percentage of total carbonic anhydrase (carbonic anhydrase II [2]; time 1500 min): 0%; A6-15, percentage of total carbonic anhydrase (carbonic anhydrase II [2]; time 1500 min): 19%; M (monomer), percentage of total carbonic anhydrase (carbonic anhydrase II [2]; time 1500 min): 80%; Large multimers, percentage of total carbonic anhydrase (carbonic anhydrase II [2]; time 1500 min): 1%; ka ([3]; 0.5 M additive in HBS-EP): 12000 M⁻¹ s⁻¹; kd ([3]; 0.5 M additive in HBS-EP): 0.022 s⁻¹; Kd ([3]; 0.5 M additive in HBS-EP, KD ≡ kd/ka): 1800 nM; ka/ka0 [3]: 0.27; kd/kd0 [3]: 1.6; effect on association rate of insulin and anti-insulin [3]: slowed; effect on dissociation rate of insulin and anti-insulin [3]: accelerated |
| Cl.N=C(N)N [GuHCl, Guanidinium chloride] | 8.2 | 77 | NaCl<<ArgHCl<GuHCl | significantly increased | 39 | 8 | 0 | 42 | 11 | 3 | 6 | 0 | 82 | 9 | 1 | 5 | 0 | 85 | 9 | 0 | A3-5, percentage of total carbonic anhydrase (carbonic anhydrase II [2]; time 1500 min): 2%; A6-15, percentage of total carbonic anhydrase (carbonic anhydrase II [2]; time 1500 min): 0%; M (monomer), percentage of total carbonic anhydrase (carbonic anhydrase II [2]; time 1500 min): 89%; Large multimers, percentage of total carbonic anhydrase (carbonic anhydrase II [2]; time 1500 min): 9%; ka ([3]; 0.5 M additive in HBS-EP): 40000 M⁻¹ s⁻¹; kd ([3]; 0.5 M additive in HBS-EP): 0.094 s⁻¹; ka/ka0 [3]: 0.91; kd/kd0 [3]: 6.7; effect on association rate of insulin and anti-insulin [3]: insignificant effect; effect on dissociation rate of insulin and anti-insulin [3]: significantly increases; effect on association rate of insulin and anti-insulin ([3]; listed as guanidinium): little effect; effect on dissociation rate of insulin and anti-insulin ([3]; listed as guanidinium): accelerated; yield of native protein (carbonic anhydrase II [4]): ~100% |
